These results are taken from patent publication US12414948B2, “Methods” (INTRA-CELLULAR THERAPIES, INC., priority 2022, dated 2025).

For this experiment, the system named is hippocampal gene expression (NanoString gene sets and genes). The experiment is described as follows: NanoString nCounter hippocampal gene expression after co-injection of LPS and lumateperone. In kind it is in vivo, mouse. The text has this:
NanoString. The mouse neuropathology panel includes 770 genes associated with themes of neurotransmission, neuron-glia interaction, neuroplasticity, cell structure integrity, neuroinflammation and metabolism. A total of 13 housekeeping genes are used for expression normalization (Aars: NM_146217.4, Asb10: NM_080444.4, Ccdc127: NM_024201.3, Cnot10: NM_153585.5, Csnk2a2: NM_009974.3, Fam104a: NM_138598.5, Gusb: NM_010368.1, Lars: NM_134137.2, Mto1: NM_026658.2, Supt7l: NM_028150.1, Tada2b: NM_001170454.1:3224, Tbp: NM_013684.3:70, and Xpnpep1: NM_133216.3:1826, see FIG. 1-1). Hippocampal RNA is extracted using the Qiagen microkit (Qiagen) and is evaluated by the Agilent 2100 Bioanalyzer (Agilent Technologies, Santa Clara, CA) to assess RNA concentration, quality, and integrity. Sample preparation, hybridization, and detection (100 ng per sample, n=5-6 per group) are carried out according to NanoString manufacturer's instructions (NanoString Technologies, Seattle, WA). The normalized data are transformed to log 2 score to express the fold change. NanoString results (raw and normalized counts) are derived from RCC files using the nSolver software (version 2.6; NanoString Technologies). A complementary gene software analysis tool, ROSALIND® Advanced Analysis Software (NanoString Technologies), is also used, which provides comprehensive free cloud-based data analysis for nCounter data by directly analyzing raw RCC files generated from NanoString. Data are imported into ROSALIND® Advanced Analysis Software for normalization, calculation of fold-changes, P values, identification of enriched pathways, and heatmaps.
It is calculated similarly to a undirected global significance score, but it takes into account the sign of the t-statistic. Scores were calculated by nSolver software, using the control group as a reference.

[1] abbreviates: LPS 500 μg/kg-challenged mice, hippocampus 2 h, label LPS = LPS alone, label Luma = LPS + Luma 3 mg/kg, vs control group.
[2] abbreviates: mice, hippocampus 2 h, Luma 3 mg/kg alone (no LPS), vs control group.

Take `CN1CCN2c3c(cccc31)[C@@H]1CN(CCCC(=O)c3ccc(F)cc3)CC[C@@H]12` [Luma, lumateperone]: under setting [1], the “Directed global significance score: DNA damage” value is 0.042, the “Directed global significance score: Inflammatory signaling” value is reported as −0.93, the “Directed global significance score: Lipid metabolism” value amounted to 0.89 and the “Directed global significance score: Oligodendrocyte function” value was 0.48. For the same molecule, the “Genes that promote inflammation (e.g., Osmr, Tnfrsf1a, Tnfrsf11b, Prl, Il1r1), cytokine-specific gene expression” value (ROSALIND analysis, LPS+Luma versus LPS alone, filter P<0.04999, mice hippocampus) was “significantly downregulates”. Moreover, under setting [2], the “Directed global significance score: Adaptive immune response” value is on record as 0.344, the “Directed global significance score: Angiogenesis” value stood at 0.616, the “Directed global significance score: Apoptosis” value was −0.442 and the “Directed global significance score: Astrocyte function” value is reported as −0.837. Also, under setting [2], the “Directed global significance score: Autophagy” value is recorded as −0.731, the “Directed global significance score: Carbohydrate metabolism” value is given as −0.837, the “Directed global significance score: Cell cycle” value is recorded as −0.75 and the “Directed global significance score: Cellular stress” value is −0.432. For the same molecule, under setting [2], the “Directed global significance score: Cytokine signaling” value is −0.543, the “Directed global significance score: DNA damage” value was −0.614, the “Directed global significance score: Epigenetic regulation” value was found to be 0.729 and the “Directed global significance score: Growth factor signaling” value came to 0.226. Under setting [2], the “Directed global significance score: Inflammatory signaling” value is −1.032, the “Directed global significance score: Innate immune response” value is given as −0.611, the “Directed global significance score: Insulin signaling” value was found to be 0.858 and the “Directed global significance score: Lipid metabolism” value is on record as −0.818. Also, under setting [2], the “Directed global significance score: Matrix remodeling” value was −0.4, the “Directed global significance score: Microglia function” value is given as 0.466, the “Directed global significance score: Notch” value came to 0.834 and the “Directed global significance score: Oligodendrocyte function” value is reported as −1.176. Further, the “Directed global significance score: Wnt” value under setting [2] is listed as 0.9.
Turning to “lipopolysaccharide [LPS, reference compound]”, under setting [1], the “Directed global significance score: Adaptive immune response” value is 0.571, the “Directed global significance score: Angiogenesis” value is given as −0.144, the “Directed global significance score: Apoptosis” value was determined as 0.915 and the “Directed global significance score: Astrocyte function” value worked out at 1.391. Further, under setting [1], the “Directed global significance score: Autophagy” value is on record as 0.588, the “Directed global significance score: Carbohydrate metabolism” value came out at 0.507, the “Directed global significance score: Cell cycle” value is on record as −0.148 and the “Directed global significance score: Cellular stress” value worked out at 0.499. In addition, under setting [1], the “Directed global significance score: Cytokine signaling” value is listed as 0.993, the “Directed global significance score: DNA damage” value stood at 0.578, the “Directed global significance score: Epigenetic regulation” value is on record as 0.312 and the “Directed global significance score: Growth factor signaling” value is reported as 0.76. Further, under setting [1], the “Directed global significance score: Inflammatory signaling” value was found to be 1.086, the “Directed global significance score: Innate immune response” value turned out to be 0.939, the “Directed global significance score: Insulin signaling” value turned out to be 0.28 and the “Directed global significance score: Lipid metabolism” value is on record as −0.192. Under setting [1], the “Directed global significance score: Matrix remodeling” value is recorded as −0.583; the “Directed global significance score: Microglia function” value came out at 0.377; the “Directed global significance score: Neurons and neurotransmission” value is −0.422; the “Directed global significance score: Notch” value was 0.876. Under setting [1], the “Directed global significance score: Oligodendrocyte function” value was 0.181 and the “Directed global significance score: Wnt” value is listed as −0.476.
